In US20100292231A1, “Indazole Compounds for Treating Inflammatory Disorders, Demyelinating Disorders and Cancers” (priority 2007, published 2010):
pEC50, pIC50: −log10 of the molar value. Where two headings read alike, the source gives them in different places.

Legend:
[1] = tested on: MdaMb231 cells; experiment: in vitro scratch (cell migration) assay; type: cell-based; settings: for concentration resulting in inhibition of cell motility / migration: Mda231 cells, after 48 hrs; for Migration: Table 5 summary, concentration inhibiting migration
Description: The in vitro scratch assay is used to determine the ability of cancer cells to migrate into and close an open wound; such migration is considered to have a role in metastasis of tumor cells.
Cells were plated in gelatin-coated 6-well plates and grown until a confluent monolayer was formed. When confluent, a straight scratch was made with a p200 pipette tip, cells were washed and compounds were added at concentrations of 1 μM, 2.5 μM, 5 μM, 10 μM and 20 μM. Images were taken at specific reference points at 0, 24 and 48 hours with Zeiss Axiovert 40 CFL microscope and Axiocam MRc5 camera and the ability of the cells to move in and close the wound was measured.
The data is presented in FIG. 1, which is a bar plot of percent cell migration into the “wound” in each sample (measured with respect to the control) and FIG. 2, which is a plot of percent wound confluence as a function of time (measured with respect to the control).

[2] = molecular target: T1, FLT3 D835Y (Homo sapiens, UniProt P36888, D835Y); experiment: Kinase EC50 (10 pt curve or estimate, ATP Kmapp); type: biochemical; settings: from 10 pt curve or estimate based on 1 μm inhibition assay at ATP Kmapp
T1 construct: purchased Invitrogen (SelectScreen platform)
T1 sequence (P36888 27-993 D835Y): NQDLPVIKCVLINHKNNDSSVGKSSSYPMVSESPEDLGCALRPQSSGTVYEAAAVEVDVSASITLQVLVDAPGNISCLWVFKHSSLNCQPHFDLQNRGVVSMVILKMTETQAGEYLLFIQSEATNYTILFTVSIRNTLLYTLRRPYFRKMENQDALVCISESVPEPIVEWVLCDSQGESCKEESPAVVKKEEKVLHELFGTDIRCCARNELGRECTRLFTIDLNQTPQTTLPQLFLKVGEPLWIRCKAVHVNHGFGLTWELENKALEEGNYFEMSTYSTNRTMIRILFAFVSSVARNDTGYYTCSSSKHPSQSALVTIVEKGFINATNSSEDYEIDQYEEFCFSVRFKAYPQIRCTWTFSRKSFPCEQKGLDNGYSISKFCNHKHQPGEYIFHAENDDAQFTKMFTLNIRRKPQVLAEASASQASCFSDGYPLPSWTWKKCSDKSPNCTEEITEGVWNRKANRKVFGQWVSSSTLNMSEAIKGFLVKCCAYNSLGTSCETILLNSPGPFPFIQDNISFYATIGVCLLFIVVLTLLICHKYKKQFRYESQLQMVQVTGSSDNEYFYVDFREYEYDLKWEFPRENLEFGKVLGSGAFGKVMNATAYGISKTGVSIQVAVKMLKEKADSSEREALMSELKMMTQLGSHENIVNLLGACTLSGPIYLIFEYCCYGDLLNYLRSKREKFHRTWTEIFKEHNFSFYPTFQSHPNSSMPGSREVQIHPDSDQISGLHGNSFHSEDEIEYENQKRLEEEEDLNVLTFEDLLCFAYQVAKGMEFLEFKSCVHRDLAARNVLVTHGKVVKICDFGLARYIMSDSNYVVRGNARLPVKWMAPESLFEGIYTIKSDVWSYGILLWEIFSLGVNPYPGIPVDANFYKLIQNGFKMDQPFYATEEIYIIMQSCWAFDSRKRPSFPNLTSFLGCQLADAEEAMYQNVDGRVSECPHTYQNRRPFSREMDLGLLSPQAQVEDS

[3] = molecular target: T2, MLCK (Homo sapiens, UniProt Q9H1R3); experiment: Kinase EC50 (10 pt curve or estimate, ATP Kmapp); type: biochemical; settings: from 10 pt curve or estimate based on 1 μm inhibition assay at ATP Kmapp
T2 construct: purchased Invitrogen (SelectScreen platform)

[4] = tested on: Raw264.7 (murine macrophage-like cells); experiment: sulforhodamine B (SRB) cytotoxicity assay; type: cell-based; settings: Mus musculus, Table 5 summary, read-out: IC50 SRB assay Raw 264.7
Description: (§1) The cytotoxic activity of compounds listed in Table 5 was determined with a sulforhodamine B (SRB) assay on panel of cell lines, including MdaMb231 (breast cancer), MV4-11 (leukemia), PC-3 (prostate cancer), U266B1 (multiple myeloma), C7 macrophages, and Raw264.7 (murine macrophage-like cells).
(§2) Cells growing in relevant media were seeded in a 96 well plate and left to adhere overnight. Cells were plated at appropriate cell densities: • MV4-11: 20.000 cells/well • Mda-Mb231: 6000 cells/well • C7: 10.000 cells/well • Raw264.7: 2000 cells/well • PC-3: 6000 cells/well • U266B1: 40.000 cells/well.
(§3) Cells were incubated before the compounds were added the next day to a top concentration of 100 μM and serially diluted 1 in 5 across the plate. After a 3 day incubation period (6 days for C7 and Raw264.7) cells were fixed with trichloroacetic acid (TCA) to end concentration of 10% for adherent cells and 16% end concentration for suspension cells for 1 hr at 4° C. before washing. Cells were stained with 0.4% sulforhodamine-B dye (SRB) in 1% acetic acid for 30 minutes and washed in 1% acetic acid. To solubilize the dye 100 μl 10 mM Tris, pH 10.5 was added and the absorbance was read at 564 nm. IC50 values were generated using the SoftMAX Pro™ software. The data is presented below in Tables 6 through 11.

[5] = tested on: MV4-11 (leukemia) cell line; experiment: sulforhodamine B (SRB) cytotoxicity assay; type: cell-based; settings: Homo sapiens
Description: as §1, §2
as §3, with “After” for “Cells were incubated before the compounds were added the next day to a top concentration of 100 μM and serially diluted 1 in 5 across the plate. After”

[6] = tested on: MdaMb231 (breast cancer) cell line; experiment: sulforhodamine B (SRB) cytotoxicity assay; type: cell-based; settings: Homo sapiens
Description: as §1, §2, §3

[7] = MV4-11, 72 h, 100 μM highest concentration, diluted 1:5, 3 day incubation, read-out: IC50 Measured Against MV4-11 Cell Line
[8] = MV4-11, Table 5 summary, read-out: IC50 SRB assay MV4-11
[9] = MDA-MB-231, 72 h, 100 μM highest concentration, diluted 1:5 (two series), 3 day incubation, read-out: IC50 Measured Against MdaMb231 Cell Line
[10] = MDA-MB-231, Table 5 summary, read-out: IC50 SRB assay Mda MB-231
[11] = MV4-11, 72 h, 50 μM highest concentration, diluted 1:4, 3 day incubation, read-out: IC50 Measured Against MV4-11 Cell Line

| Structure (SMILES) | pEC50 [2] | pEC50 [3] | concentration resulting in inhibition of cell motility / migration [1] [µM] | Migration [1] [μm] | pIC50 [4] | pIC50 [5, 7] | pIC50 [5, 8] | pIC50 [6, 9] | pIC50 [6, 10] | pIC50 [5, 11] |
| --- | --- | --- | --- | --- | --- | --- | --- | --- | --- | --- |
| CN(C)CCCNc1ccc2ncn3c4ccc5[nH]ncc5c4c(=O)c1c23 [Compound (IV)] | 7.92 | 7.68 | 5 | 1 | > 10.00 | > 9.00 | > 9.00 | 5.27 | 5.27 | – |
| CCN(CC)CCCNc1ccc2ncn3c4ccc5[nH]ncc5c4c(=O)c1c23 [Compound (XV)] | 8.40 | 8.10 | 1 | 1 | > 10.00 | – | > 9.00 | 5.40 | 5.40 | > 9.00 |
| CCN(CC)CCNc1ccc2ncn3c4ccc(O)cc4c(=O)c1c23 [Symadex, 5-(2-(diethylamino)ethylamino)-8-hydroxy-6H-imidazo[4,5,1-de]acridin-6-one, reference compound] | 7.62 | 7.02 | 10 | 10 | – | 7.92 | 7.92 | – | 5.17 | 7.55 |

More lines, main results first:

| pEC50 [2] | pEC50 [3] | Structure (SMILES) | concentration resulting in inhibition of cell motility / migration [1] [µM] | Migration [1] [μm] | pIC50 [4] | pIC50 [5, 7] | pIC50 [5, 8] | pIC50 [6, 9] | pIC50 [6, 10] | pIC50 [5, 11] |
| --- | --- | --- | --- | --- | --- | --- | --- | --- | --- | --- |
| 7.96 | 7.28 | O=c1c2c(NCCCN3CCOCC3)ccc3ncn(c4ccc5[nH]ncc5c14)c32 [(X)] | 5 | 5 | 8.57 | 8.70 | 8.70 | – | – | – |
| 8.52 | 7.74 | CN(C)CCNc1ccc2ncn3c4ccc5[nH]ncc5c4c(=O)c1c23 [(XII)] | 5 | >5 | > 10.00 | > 9.00 | > 9.00 | 5.13 | 5.13 | – |
| 8.10 | 7.28 | CC(CCN1CCOCC1)Nc1ccc2ncn3c4ccc5[nH]ncc5c4c(=O)c1c23 (stereo not drawn) [(XVI)] | 5 | 1 | 7.59 | 6.92 | 6.92 | 5.29 | 5.29 | – |
| 8.30 | 8.05 | CN1CCN(CCCNc2ccc3ncn4c5ccc6[nH]ncc6c5c(=O)c2c34)CC1 [(XVII)] | 5 | 5 | 8.59 | – | 7.09 | 4.34 | 4.34 | 7.09 |
